Data on two compounds can be found in US5401734A, “Cephem compounds” (Fujisawa Phamaceutical Co., Ltd., priority 1988, dated 1995).

Converted amounts (≈) assume the structure as drawn.

The experiment has as its system P. aeruginosa 26. Nature of the experiment: In vitro antibacterial activity, MIC by the two-fold agar-plate dilution method. It is filed as cell-based. The conditions noted are these: Pseudomonas aeruginosa, heart infusion agar, 37° C., 20 hours, overnight culture 10^8 viable cells per ml, read-out: MIC (minimal inhibitory concentration). How it is done: Now in order to show the utility of the object compound (I), the test data on MIC (minimal inhibitory concentration) of representative compound of this invention are shown in the following.
In vitro antibacterial activity was determined by the two-fold agar-plate dilution method as described below.
One loopful of an overnight culture of each test strain in Trypticase-soy broth (10^8 viable cells per ml) was streaked on heart infusion agar (HI-agar)containing graded concentrations of representative test compound, and the minimal inhibitory concentration (MIC) was expressed in terms of μg/ml after incubation at 37° C. for 20 hours.

Turning to `CC(C)(O/N=C(\C(=O)N[C@@H]1C(=O)N2C(C(=O)[O-])=C(C[N+](C)(C)Cc3cc(=O)c(O)c[nH]3)CS[C@H]12)c1nsc(N)n1)C(=O)O` [Test compound (1), 7β-[2-(5-Amino-1,2,4-thiadiazol-3-yl)-2-(1-carboxy-1-methylethoxyimino)acetamido]-3-[N,N-dimethyl-N-{(5-hydroxy-4-oxo-1,4-dihydropyridin-2-yl)methyl}ammonio]methyl-3-cephem-4-carboxylate (syn isomer)], the MIC is at most 0.025 µg/mL.

For the compound `CO/N=C(\C(=O)N[C@@H]1C(=O)N2C(C(=O)[O-])=C(C[N+]3(C)CCN(C(=O)c4cc(O)c(O)cn4)CC3)CS[C@H]12)c1nsc(N)n1` [Test compound (2), 7β-[2-(5-Amino-1,2,4-thiadiazol-3-yl)-2-methoxyiminoacetamido]-3-[1-methyl-4-(4,5-dihydroxy-2-pyridylcarbonyl)-1-piperazinio]methyl-3-cephem-4-carboxylate (syn isomer)], the MIC stood at 0.05 µg/mL (≈ 0.0789 µM).
